{"source": "paper PMC7785020", "about": "“A unique hormonal recognition feature of the human glucagon-like peptide-2 receptor” (Cell Research, 2020)", "key": {"GLP-2R W340^5.36A": {"molecular_target": "T1, GLP-2R W340^5.36A (Homo sapiens, UniProt O95838, W340A)", "T1 sequence (O95838 1-553 W340A)": "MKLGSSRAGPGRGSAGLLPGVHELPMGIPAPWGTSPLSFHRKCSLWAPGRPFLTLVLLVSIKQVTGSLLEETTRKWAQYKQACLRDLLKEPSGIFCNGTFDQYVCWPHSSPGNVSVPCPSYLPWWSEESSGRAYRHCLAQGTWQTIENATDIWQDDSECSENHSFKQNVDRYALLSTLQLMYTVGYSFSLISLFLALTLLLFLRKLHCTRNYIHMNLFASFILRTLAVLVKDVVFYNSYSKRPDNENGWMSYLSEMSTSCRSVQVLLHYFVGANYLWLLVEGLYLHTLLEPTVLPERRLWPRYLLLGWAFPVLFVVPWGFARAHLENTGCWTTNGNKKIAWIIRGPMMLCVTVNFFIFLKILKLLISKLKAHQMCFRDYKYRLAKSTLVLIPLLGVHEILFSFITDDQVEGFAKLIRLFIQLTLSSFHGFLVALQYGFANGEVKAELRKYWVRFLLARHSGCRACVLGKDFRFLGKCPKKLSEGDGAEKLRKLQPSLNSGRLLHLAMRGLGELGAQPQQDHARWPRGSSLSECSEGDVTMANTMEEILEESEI", "experiment": "cAMP accumulation, W340^5.36A", "assay_type": "cell-based", "design": "WT (1–553); expressed in transfected cells; HEK 293T (cAMP)", "conditions": "Table S3, W340A; HEK 293T, 30 min, RT; mean ± SEM, n ≥ 3 in duplicate; read-out: cAMP Emax (% WT)", "procedure": "(§1) HEK 293T cells were cultured in Dulbecco’s Modified Eagle’s Medium (DMEM) (Gibco, Waltham, USA) supplemented with 10% (v/v) fetal bovine serum (FBS) (Gibco) and 1% (v/v) sodium pyruvate (Gibco) at 37 °C, 5% CO2 in a humidified incubator. They were seeded onto 6-well cell culture plates and transiently transfected with different GLP-2R constructs using Lipofectamine 2000 transfection reagent (Invitrogen, Carlsbad, CA, USA). After 24 h, the transfected cells were seeded onto 384-well microtiter plates (3000 cells per well) in HBSS supplemented with 5 mM HEPES, 0.1% (w/v) bovine serum albumin (BSA) and 0.5 mM 3-isobutyl-1- methylxanthine, and stimulated with increasing concentrations of GLP-2 for 30 min at RT. Eu and Ulight were diluted by cAMP detection buffer and added to the plates separately to terminate the reaction. Plates were incubated at RT for 60 min before measuring the fluorescence intensity at 620 nm and […] by an EnVision multilabel plate reader (PerkinElmer, Boston, USA)."}, "GLP-2R K231^2.67A": {"molecular_target": "T2, GLP-2R K231^2.67A (Homo sapiens, UniProt O95838, K231A)", "T2 sequence (O95838 1-553 K231A)": "T1 sequence (O95838 1-553 W340A) with K231A, A340W", "experiment": "cAMP accumulation, K231^2.67A", "assay_type": "cell-based", "design": "WT (1–553); expressed in transfected cells; HEK 293T (cAMP)", "conditions": "Table S3, K231A; HEK 293T, 30 min, RT; mean ± SEM, n ≥ 3 in duplicate; read-out: cAMP Emax (% WT)", "procedure": "as §1"}}, "note": "Where a chain is given by its changes, count along the chain named.", "data": [{"compound": "CC[C@H](C)[C@H](NC(=O)[C@H](Cc1ccccc1)NC(=O)[C@H](CC(=O)O)NC(=O)[C@H](CCCNC(=N)N)NC(=O)[C@H](C)NC(=O)[C@H](C)NC(=O)[C@H](CC(C)C)NC(=O)[C@H](CC(N)=O)NC(=O)[C@H](CC(=O)O)NC(=O)[C@H](CC(C)C)NC(=O)[C@@H](NC(=O)[C@@H](NC(=O)[C@H](CC(N)=O)NC(=O)[C@H](CCSC)NC(=O)[C@H](CCC(=O)O)NC(=O)[C@H](CC(=O)O)NC(=O)[C@H](CO)NC(=O)[C@H](Cc1ccccc1)NC(=O)[C@H](CO)NC(=O)CNC(=O)[C@H](CC(=O)O)NC(=O)[C@H](C)NC(=O)[C@@H](N)Cc1c[nH]cn1)[C@@H](C)O)[C@@H](C)CC)C(=O)N[C@@H](CC(N)=O)C(=O)N[C@@H](Cc1c[nH]c2ccccc12)C(=O)N[C@@H](CC(C)C)C(=O)N[C@H](C(=O)N[C@@H](CCC(N)=O)C(=O)N[C@H](C(=O)N[C@@H](CCCCN)C(=O)N[C@H](C(=O)N[C@H](C(=O)N[C@@H](CC(=O)O)C(=O)O)[C@@H](C)O)[C@@H](C)CC)[C@@H](C)O)[C@@H](C)CC", "note": "[Human GLP-2 (1–33)]", "values": [{"measurement": "Emax", "setting": "GLP-2R W340^5.36A", "value": "107 ± 3.6", "unit": "%"}, {"measurement": "Emax", "setting": "GLP-2R K231^2.67A", "value": "105 ± 3", "unit": "%"}]}]}
